One compound from patent US8242274B2, “Triazolopyridine kinase inhibitors useful for the treatment of degenerative and inflammatory diseases” (Galapagos NV, priority 2008, dated 2012) can be followed below.

In data set [1] the target is T1, Recombinant human JAK1 catalytic domain (Homo sapiens, UniProt P23458).
T1 construct: Recombinant human JAK1 catalytic domain (amino acids 850-1154; catalog number 08-144); purchased Carna Biosciences 08-144
The data set can be described thus: JAK1 inhibition assay. The following applies: semi-quantitative score. It counts as biochemical. On the procedure: Recombinant human JAK1 catalytic domain (amino acids 850-1154; catalog number 08-144) was purchased from Carna Biosciences. 10 ng of JAK1 was incubated with 12.5 μg polyGT substrate (Sigma catalog number P0275) in kinase reaction buffer (15 mM Tris-HCl pH 7.5, 1 mM DTT, 0.01% Tween-20, 10 mM MgCl2, 2 μM non-radioactive ATP, 0.25 μCi 33P-gamma-ATP (GE Healthcare, catalog number AH9968) final concentrations) with or without 5 μL containing test compound or vehicle (DMSO, 1% final concentration), in a total volume of 25 μL, in a polypropylene 96-well plate (Greiner, V-bottom). After 45 min at 30° C., reactions were stopped by adding of 25 μL/well of 150 mM phosphoric acid. All of the terminated kinase reaction was transferred to prewashed (75 mM phosphoric acid) 96 well filter plates (Perkin Elmer catalog number 6005177) using a cell harvester (Perkin Elmer). Plates were washed 6 times with 300 μL per well of a 75 mM phosphoric acid solution and the bottom of the plates was sealed. 40 μL/well of Microscint-20 was added, the top of the plates was sealed and readout was performed using the Topcount (Perkin Elmer). Kinase activity was calculated by subtracting counts per minute (cpm) obtained in the presence of a positive control inhibitor (10 μM staurosporine) from cpm obtained in the presence of vehicle. The ability of a test compound to inhibit this activity was determined as: Percentage inhibition=((cpm determined for sample with test compound present−cpm determined for sample with positive control inhibitor)divided by(cpm determined in the presence of vehicle−cpm determined for sample with positive control inhibitor))*100%.
Dose dilution series were prepared for the compounds enabling the testing of dose-response effects in the JAK1 assay and the calculation of the IC50 for each compound. Each compound was routinely tested at concentration of 20 μM followed by a 1/3 serial dilution, 8 points (20 μM-6.67 μM-2.22 μM-740 nM-247 nM-82 nM-27 nM-9 nM) in a final concentration of 1% DMSO.

Another data set has as its system MMP13. The data set can be described thus: OSM/IL-1β signaling assay (SW1353 cells). It counts as cell-based. Particulars: Homo sapiens, 25 ng/mL OSM and 1 ng/mL IL-1β, 48 hours.
Data set [2] can be described thus: Microsomal stability, human. It counts as in vitro ADME. Particulars: human liver microsomes, 3 μM compound, 37° C. On the procedure: (§1) A 10 mM stock solution of compound in DMSO was diluted 1000 fold in a 182 mM phosphate buffer pH 7.4 in a 96 deep well plate (Greiner, Cat no. 780285) and pre-incubated at 37° C.
(§2) 40 μL of deionised water was added to a well of a polypropylene Matrix 2D barcode labelled storage tube (Thermo Scientific) and pre-incubated at 37° C.
(§3) A Glucose-6-phosphate-dehydrogenase (G6PDH) working stock solution was prepared in 182 mM phosphate buffer pH7.4 and placed on ice before use. A co-factor containing MgCl2, glucose-6-phosphate and NADP+ was prepared in deionised water and placed on ice before use.
(§4) A final working solution containing liver microsomes (Xenotech) of a species of interest (human, mouse, rat, dog), previously described G6PDH and co-factors was prepared and this mix was incubated for no longer than 20 minutes at room temperature.
(§5) 30 μL of the pre-heated compound dilution was added to 40 μL of pre-heated water in the Matrix tubes and 30 μL of the microsomal mix was added. Final reaction concentrations were 3 μM compound, 1 mg microsomes, 0.4 U/mL GDPDH, 3.3 mM MgCl2, 3.3 mM glucose-6-phosphate and 1.3 mM NADP+.
(§6) To measure percentage remaining of compound at time zero MeOH or ACN was added (1:1) to the well before adding the microsomal mix. The plates were sealed with Matrix Sepra Seals™ (Matrix, Cat. No. 4464) and shaken for a few seconds ensure complete mixing of all components.
(§7) The samples which were not stopped are incubated at 37° C., 300 rpm and after 1 hour of incubation the reaction was stopped with MeOH or ACN (1:1).
(§8) After stopping the reaction the samples were mixed and placed on ice for 30 min to precipitate the proteins. The plates were then centrifuged 30 min at 1200 rcf at 4° C. and the supernatant was transferred to a 96 v-bottom PP plate (Greiner, 651201) for analysis on LCMS.
(§9) These plates were sealed with sealing mats (MA96RD-04S) of www.kinesis.co.uk and samples were measured at room temperature on LCMS (ZQ 1525 from Waters) under optimized conditions using Quanoptimize to determine the appropriate mass of the parent molecule.
(§10) The samples were analyzed on LCMS with a flow rate of 1 mL/min. Solvent A was 15 mM ammonia and solvent B was methanol or acetonitrile, depending on the stop solution used. The samples were run under positive ion spray on an XBridge C18 […] (2.1×30 mm) column, from Waters.
(§11) Peak area from the parent compound at time 0 was considered to be 100% remaining. The percentage remaining after 1 hour incubation was calculated from time 0 and was calculated as the percentage remaining. The solubility of the compound in the final test concentration in buffer is inspected by microscope and results are reported.
(§12) The data on microsomal stability are expressed as a percentage of the total amount of compound remaining after 60 minutes.
On the technique in general: Microsomes from liver hold many membrane-bound enzymes, among them those of drug oxidation.

Data set [3] is described as follows: Microsomal stability, rat. Type of data set: in vitro ADME. Particulars: rat liver microsomes, 3 μM compound, 37° C. On the procedure:
as §1, §2, §3, §4, §5, §6, §7, §8, §9, §10, §11, §12

The nature of data set [4]: Caco2 permeability, bi-directional. It counts as in vitro ADME. The following applies: human, Caco-2; 10 μM, 1 hour, pH 7.4. The method, then:
Bi-directional Caco-2 assays were performed as described below. Caco-2 cells were obtained from European Collection of Cell Cultures (ECACC, cat 86010202) and used after a 21 day cell culture in 24-well Transwell plates (Fisher TKT-545-020B).
2×10^5 cells/well were seeded in plating medium consisting of DMEM+GlutaMAXI+1% NEAA+10% FBS (FetalClone II)+1% Pen/Strep. The medium was changed every 2-3 days.
Test and reference compounds (propranolol and rhodamine 123 or vinblastine, all purchased from Sigma) were prepared in Hanks' Balanced Salt Solution containing 25 mM HEPES (pH 7.4) and added to either the apical (125 μL) or basolateral (600 μL) chambers of the Transwell plate assembly at a concentration of 10 μM with a final DMSO concentration of 0.25%.
50 μM Lucifer Yellow (Sigma) was added to the donor buffer in all wells to assess integrity of the cell layers by monitoring Lucifer Yellow permeation. As Lucifer Yellow (LY) cannot freely permeate lipophilic barriers, a high degree of LY transport indicates poor integrity of the cell layer.
After a 1 hour incubation at 37° C. while shaking at an orbital shaker at 150 rpm, 70 μL aliquots were taken from both apical (A) and basal (B) chambers and added to 100 μLl 50:50 acetonitrile:water solution containing analytical internal standard (0.5 μM carbamazepine) in a 96 well plate.
Lucifer yellow was measured with a Spectramax Gemini XS (Ex 426 nm and Em 538 nm) in a clean 96 well plate containing 150 μL of liquid from basolateral and apical side.
Concentrations of compound in the samples were measured by high performance liquid-chromatography/mass spectroscopy (LC-MS/MS).
The Efflux ratios, as an indication of active efflux from the apical cell surface, were calculated using the ratio of PappB>A/PappA>B.
A general note: Passage across Caco-2 layers is used to estimate intestinal permeability.

The term IC50 denotes the concentration at which inhibition is half-maximal. By EC50 is commonly meant the concentration at which the effect is half-maximal. The Papp A→B is how fast a substance crosses the layer from the apical side.

T1 sequence (P23458 850-1154): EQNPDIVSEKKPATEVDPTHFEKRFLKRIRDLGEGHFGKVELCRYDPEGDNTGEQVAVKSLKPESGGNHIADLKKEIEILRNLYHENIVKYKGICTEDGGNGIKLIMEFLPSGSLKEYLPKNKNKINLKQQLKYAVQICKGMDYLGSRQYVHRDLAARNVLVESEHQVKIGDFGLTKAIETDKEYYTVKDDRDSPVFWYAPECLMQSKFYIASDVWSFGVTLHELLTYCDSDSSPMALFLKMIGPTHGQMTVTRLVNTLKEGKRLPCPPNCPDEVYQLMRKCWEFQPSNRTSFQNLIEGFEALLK
Protocol for MMP13: The cells were seeded in 96 well plates at 15,000 cells/well in a volume of 120 μL DMEM (Invitrogen) containing 10% (v/v) FBS and 1% penicillin/streptomycin (InVitrogen) incubated at 37° C. 5% CO2. Cells were preincubated with 15 μL compound in M199 medium with 2% DMSO 1 hr before triggering with 15 μL OSM and IL-1β to reach 25 ng/mL OSM and 1 ng/mL IL-1β, and MMP13 levels were measured in conditioned medium 48 hours after triggering. MMP13 activity was measured using an antibody capture activity assay. For this purpose, 384 well plates (NUNC, 460518, MaxiSorb black) were coated with 35 μL of a 1.5 μg/mL anti-human MMP13 antibody (R&D Systems, MAB511) solution for 24 hours at 4° C. After washing the wells 2 times with PBS+0.05% Tween, the remaining binding sites were blocked with 100 μL 5% non-fat dry milk (Santa Cruz, sc-2325, Blotto) in PBS for 24 hours at 4° C. […] Next the wells were washed twice with PBS+0.05% Tween followed by MMP13 activation by addition of 35 μL of a 1.5 mM 4-Aminophenylmercuric acetate (APMA) (Sigma, A9563) solution and incubation at 37° C. for 1 hour. […] After incubation for 24 hours at 37° C. fluorescence of the converted substrate was measured in a Perkin Elmer Wallac EnVision 2102 Multilabel Reader (wavelength excitation: 320 nm, wavelength emission: 405 nm).

As to `NC(=O)c1ccc(COc2ccc(-c3cccc4nc(NC(=O)C5CC5)nn34)cc2)cn1` [Compound 192, 5-{4-[2-(Cyclopropanecarbonyl-amino)-[1,2,4]triazolo[1,5-a]pyridin-5-yl]-phenoxymethyl}-pyridine-2-carboxylic acid amide], the half-maximal inhibitory concentration (IC50) in data set [1] was 0.1 to 100 nM. Also, in the data set with MMP13, the half-maximal effective concentration (EC50) was more than 1000 nM. Also, in data set [2], the “Microsomal stability Human (%), compound remaining after 60 minutes” value is 127.2%. Besides, the “Microsomal stability Rat (%), compound remaining after 60 minutes” value in data set [3] was found to be 77.62%. Also, in data set [4], the Papp A→B at 1 h, 10 μM came out at 12.5 ×10⁻⁶ cm/s.
